Reference: patent publication US11306063B2, “Heterocyclic naphthoquinones derivatives for use in the treatment of cancers including Cushing disease” (Commissariat a l'Energie Atomique et aux Energies …, priority 2016, dated 2022)

Legend:
[1] = tested on: HCC827 cells; experiment: Cytotoxicity assay (PrestoBlue cell viability), HCC827; format: cell-based; settings: Homo sapiens, 48 hours treatment
Protocol: Messa, Messa DX5, HCT116, HEK-293, PC-3, LNCaP, HCC827 and H1975 cell lines are issued from the American Type Culture Collection (ATCC).
For cytotoxicity assays, cells were seeded in 96-well microplates 24 hours before the addition of increasing concentrations of each compound in the culture medium. Cell viability was analyzed 48 hours following addition of each compound through the monitoring of mitochondrial […] activity using PrestoBlue® Cell Viability Reagent (Invitrogen; #A-13261). Paclitaxel was used as a control which is cytotoxic on various cancerous cells although not on chemoresistant MESSA DX5 lineage.

[2] = tested on: LNCaP cells spheroids; experiment: Cell migration out of 3D spheroids; format: cell-based, human; settings: 2 μM and 5 μM; 1 to 7 days; FIG. 3
Protocol: In vitro migration out of the spheroid was performed using a 96-well tissue culture plate (Cell Culture Microplate, 96 wells, Flat-BOTTOM, CellStar #655090). 100 μL (72 h hours old+24 h drug treatment spheroids) were placed in corresponding well of the new flat microplate, and daily observed in bright field with a Zeiss Axio Observer microscope. Each condition was made in six replicates. The migration area was measured with the tools of the AxioObserver software.
To this end, 3-days old spheroids are placed in a new flat-well microplate and daily observed in bright field.

[3] = tested on: BT-549 triple negative breast cancer cells; experiment: Wounding assay, BT-549; format: cell-based; settings: from 1 μM concentration; mitomycine 2 μg/ml; 24 hours
Protocol: In addition the migratory capacity of two additional triple negative breast cancer cells lines: the metastatic MDA-MB231 and BT-549 showing high migratory capacity was analyzed in a classical wound assay.
BT-549, MDA-MB231 cell lines were issued from the American Type Culture Collection (ATCC). For wounding assays, cells were seeded in 24-well microplates (Culture Insert 21, ref 250210, Ibidi®). […] Cell spreading was then visualized during 24 hours by videomicroscopy (1 acquisition each 30 min). A representative picture of 3 is presented at 0 and 12 hours of drug treatment out. In Graphs, curves represents the empty surface (devoid of cells) between the two cell layers (delimited by using Image J software).

[4] = tested on: chicken embryos; experiment: Toxicity in the chick embryo model; format: in vivo; settings: each second day at 2 μM or 10 μM; FIG. 4B
Protocol: The number of dead embryo evaluates the toxicity after 10 days of the treatment as well as the research of abnormality on 22 checkpoints observed on surviving embryos at two concentrations of drugs (i.e. 2 μM and 10 μM). • Head: Size, Closure, Eyes, Ear, Face and Branchial are derivatives, Mobility; • Body: Size, Axis deformation, ventral and dorsal Closures, Caudal formation, Sexual area; • Limbs: Size, Axis morphology, Mobility, • Skin: Appendage formation, Attachment, Blood vessel; • Extra-Embryonic Structures: Vascularisation, Transparency, Attachment, Blood vessel Results

[5] = tested on: CyclinD1 and FAS in PC-3 cells; experiment: Protein expression by immunoblot, PC-3; format: cell-based, human; settings: dose and time dependent; 6 h or 24 h; FIG. 6
Protocol: (§1) In FIG. 6B and FIG. 6D, LNCaP cells were treated with dihydrotestosterone (DHT) to induce hormonal dependent FAS expression. Actin or Tubulin (Tub) serve as loading controls. One representative experiment out of three is presented.
(§2) Cells were treated by either DMSO (0.5%) or increasing doses of the selected molecules from 1 μM to 10 μM over 6 to 24 hours as indicated. Cell lysates were analyzed by immunoblotting following standard procedure using primary antibodies from Cell Signaling: anti-total P53 (#9282), anti-phosphoP53 Kit (#9919), anti-cyclinD1 (#2926), anti-FAS (#3189), anti EGFR (#4267), anti-Phospho (tyr1068) EGFR (#2234), anti Met (#4560), anti-Akt (#9272), anti Phospho(Ser473)-Akt (#9271) or anti-Myc (Santa Cruz Technology #Sc-40). Tubulin was detected using anti α-tubulin primary antibody (in-house: the polyclonal Glu-tubulin antibody (L4) is available commercially from Abcys (Paris, France)). HRP-coupled anti-rabbit (#A6154) and anti-mouse (#A4416) secondary antibodies were purchased from Sigma. HRP activity was detected through HRP chemoluminescence detection reagent (Millipore, #WBLUF0100). Apoptotic cell death induction was observed through the observation of PARP cleavage using anti-PARP primary antibodies anti-PARP (46D11) (#9532). Positive control was Epotoside at 50 μM or 100 μM, a known drug inducing cancerous cell death by apoptosis.

[6] = tested on: CyclinD1, FAS, p53, PARP, cMyc in LNCaP cells; experiment: Protein expression by immunoblot, LNCaP; format: cell-based, human; settings: for Myc expression level, LNCaP / PARP cleavage, LNCaP: 24 h; for Myc expression level, LNCaP / PARP cleavage, LNCaP / phosphorylated p53 (P-Ser392, P-Ser15), LNCaP: FIG. 8; for PARP cleavage, LNCaP: concentration dependent; for phosphorylated p53 (P-Ser392, P-Ser15), LNCaP: FIG. 7C
Protocol: as §1
Actin or Tubulin (Tub) serve as loading controls. One representative experiment out of three is presented.
Tubulin (Tub) serves as loading controls. One representative experiment out of three is presented.
as §2

[7] = tested on: EGFR, P-EGFR, Met, P-Akt in HCC827 cells; experiment: Protein expression by immunoblot, HCC827; format: cell-based, human; settings: 6 hours; dose dependent; FIG. 10
Protocol: Tubulin (Tub) serve as loading controls. One representative experiment out of two is presented.
(§3) Cells were treated by either DMSO (0.5%) or increasing doses of the selected molecules from 1 μM to 10 μM over 6 to 24 hours as indicated. […] Tubulin was detected using anti α-tubulin primary antibody (in-house: the polyclonal Glu-tubulin antibody (L4) is available commercially from Abcys (Paris, France)). HRP-coupled anti-rabbit (#A6154) and anti-mouse (#A4416) secondary antibodies were purchased from Sigma. HRP activity was detected through HRP chemoluminescence detection reagent (Millipore, #WBLUF0100). […] Positive control was Epotoside at 50 μM or 100 μM, a known drug inducing cancerous cell death by apoptosis.

[8] = tested on: EGFR and Met in HEK293T cells; experiment: Protein expression by immunoblot, HEK293T (Flag-USP8-S680A); format: cell-based, human; settings: FIG. 11
Protocol: One representative experiment out of two is presented.
as §3

[9] = molecular target: USP2-FL (Homo sapiens, UniProt O75604); experiment: biochemical
[10] = dose and time dependent, 6 h or 24 h, FIG. 6

USP2-FL, sequence (O75604 whole entry): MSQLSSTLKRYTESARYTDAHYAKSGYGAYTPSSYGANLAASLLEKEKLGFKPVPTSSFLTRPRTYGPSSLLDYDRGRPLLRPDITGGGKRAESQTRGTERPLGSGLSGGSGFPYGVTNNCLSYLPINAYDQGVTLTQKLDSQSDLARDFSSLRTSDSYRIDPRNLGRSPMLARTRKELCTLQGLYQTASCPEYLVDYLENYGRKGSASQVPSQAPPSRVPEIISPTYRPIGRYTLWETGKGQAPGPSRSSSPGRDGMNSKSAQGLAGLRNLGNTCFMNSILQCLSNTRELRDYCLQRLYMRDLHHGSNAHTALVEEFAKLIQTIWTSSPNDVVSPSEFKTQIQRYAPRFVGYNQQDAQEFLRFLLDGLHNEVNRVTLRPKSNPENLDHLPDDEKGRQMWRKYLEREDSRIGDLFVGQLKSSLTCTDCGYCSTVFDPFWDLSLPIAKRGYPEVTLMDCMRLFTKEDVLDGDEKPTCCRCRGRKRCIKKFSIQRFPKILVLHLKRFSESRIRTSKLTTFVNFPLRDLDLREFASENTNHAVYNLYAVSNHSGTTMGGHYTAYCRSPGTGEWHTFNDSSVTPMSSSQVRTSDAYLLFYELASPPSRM

CCCCS(=O)(=O)Cc1nc2c(nc1CS(=O)(=O)CCCC)C(=O)c1ccccc1C2=O [PCR6236]
EC50 [1]: 1.8 µM
prevention of cell migration out of the spheroids [2]: strong capacity
cell migration in wounding assay, BT-549 [3]: prevents triple negative breast cancer cell migration
toxicity (death, macroscopic abnormalities) in chick embryo [4]: No significant toxicity
expression level of CyclinD1, PC-3 [5]: strongly decreased
expression level of FAS, PC-3 [5]: strongly decreased
Myc expression level, LNCaP [6]: decrease
PARP cleavage, LNCaP [6]: induced the cleavage of PARP
phosphorylated p53 (P-Ser392, P-Ser15), LNCaP [6]: accumulated
expression level of CyclinD1, LNCaP [6, 10]: strongly decreased
expression level of FAS, LNCaP [6, 10]: strongly decreased
p53 expression, LNCaP ([6]; dose dependent, FIG. 7A): restored high levels of p53 expression
Akt phosphorylation, HCC827 [7]: prevents Akt phosphorylation
EGFR degradation, HCC827 [7]: EGFR and Met degradation
EGFR phosphorylation, HCC827 [7]: induces EGFR phosphorylation
Met degradation, HCC827 [7]: EGFR and Met degradation
EGFR levels induced by USP8-S680A, HEK293T ([8]; 6 h): markedly reduced EGFR levels
Met degradation, HEK293T ([8]; 6 hours, dose-dependent): induced Met degradation
IC50 [9]: 0.2 µM

CCCCS(=O)(=O)Cc1nc2c(o1)C(=O)c1ccccc1C2=O [PCR9301]
Myc expression level, LNCaP [6]: cMyc degradation
PARP cleavage, LNCaP [6]: induced PARP cleavage
phosphorylated p53 (P-Ser392, P-Ser15), LNCaP [6]: phosphorylation of p53 on Ser15
